# Marks after values point to notes of the source that are not given here.
# Assays:
# [1] = test system: M. incognita second-stage juveniles; assay: Microwell assay: previously hatched J2 immersed in compounds, activity and viability; conditions: for % Active Day 1 / % Active Day 2: 0.1%, previously hatched J2 in aqueous solution; for viability at 0.1 % / mortality at 0.1 %: Meloidogyne incognita, 72 h; for viability at 0.1 %: read-out: % Viable Day 3 rinsed; for mortality at 0.1 %: read-out: nonviable (killed) J2
# Experimental: Nematode cultures: As described in Meyer et al. (Meyer, S. L. F., et al., Nematropica, 46: 85-96 (2016)), M. incognita race 1 (originally isolated in Maryland) was maintained in a greenhouse (24° to 29° C.; natural and supplemental lighting combined for a 16-h daylength) on susceptible cayenne pepper (Capsicum annuum) TA-136′ plants. All greenhouse experiments described herein were conducted under the same conditions. Two to three months after pepper plant inoculation, egg masses were picked from roots. Eggs were separated by 5 min immersion in 0.6% sodium hypochlorite, followed by a rinse in sterile distilled water (SDW). To collect second-stage juveniles (J2) for microwell assays, the surface-sterilized eggs were placed in a hatching chamber (Spectra/Mesh Nylon Filter, openings 25-μm-diam.; Spectrum Laboratories Inc., Rancho Dominguez, Calif.) set in an autoclaved dish that was placed on a rotary shaker for 3 days at 35 rpm. For some M. incognita and H. glycines assays, 25 or […] kanamycin monosulfate (Phytotechnology Laboratories, Shawnee Mission, Kans.) was added to the hatching chamber to prevent growth of bacteria. The collected J2 were then rinsed with water to remove the kanamycin monosulfate.
# (§1) Compounds for the studies were purchased from three different companies: methyl benzoate, CAS Number 93-58-3, ≥99% purity; Tween 20, CAS Number: 9005-64-5; Tween 80, CAS Number: 9005-65-6; ethyl benzoate, CAS Number: 93-89-0, natural, ≥99% purity, FCC, FG; vinyl benzoate, CAS Number: 769-78-8, ≥99% purity; n-propyl benzoate, CAS Number: 2315-68-6, 99% purity; n-butyl benzoate, CAS Number: 136-60-7, 99% purity; benzyl benzoate, CAS Number: 120-51-4, natural, ≥99% purity, FCC, FG; methyl 2-methylbenzoate, CAS Number: 89-71-4, 99% purity; methyl 2-chlorobenzoate, CAS Number: 610-96-8, ≥98% purity; methyl 2-methoxybenzoate, CAS Number: 606-45-1, 99% purity and methyl 2-nitrobenzoate, CAS Number: 606-27-9, 98% purity were purchased from Sigma-Aldrich (St. Louis, Mo.). Compounds, iso-butyl benzoate, CAS Number 120-50-3, >98% purity; n-pentyl benzoate, CAS Number: 2049-96-9, ≥98% purity; and n-hexyl benzoate, CAS Number: 6789-88-4, ≥98% purity were purchased from Alfa Aesar (Tewksbury, Mass.). The compounds methyl 3-methoxybenzoate (methyl m-anisate), CAS Number: 5368-81-0; 97% and methyl 3-methylbenzoate (methyl m-toluate), CAS Number: 99-36-5, 97% purity were purchased from TCI America (Portland, Oreg.). All chemicals were used without further purification. Deionized water (DI) containing 1% emulsifier (v/v), Tween 20 and Tween 80, at 1:1 ratio was used to make different VOCs (volatile organic compounds) water solutions and also used as blank control.
# (§2) For tests with individual compounds, the concentration of each compound was 0.1% before placement into wells; the final concentration in the wells was 0.095% after addition to eggs or J2 suspended in water. These are reported as 0.1% herein. An exception was Trial 2, M. incognita J2 activity and viability (Table 2): the final concentration was 0.1% after placement in wells. Low concentrations were selected for assays of combined compounds to determine if the combinations would increase nematotoxicity.
# (§3) Laboratory assays were conducted in 96-well polystyrene plates following general procedures described in Wen et al. (2019). Each well received approximately 35 J2 (for previously hatched J2 assays) or 35 eggs that each contained either a first-stage juvenile (J1) or a J2. The plates were covered with plastic adhesive sealing film (Excel Scientific, Inc., Victorville Calif.) and then with the plate lids. Parafilm (Bemis, Neenah, Wis.) was used to seal the plates. The nematodes were then incubated at 26° C. […] Following the counts on Day 2, the treatments were removed and the J2 rinsed twice with SDW and incubated in the second rinse. […] Two trials were conducted for each assay.
# M. incognita eggs = assay: Microwell assay: eggs immersed in compounds, hatch and activity of hatched J2; format: in vivo, Meloidogyne incognita; conditions: 0.1%; for % Active Day 2 / % Active Day 5 / % Active Day 7: J2 hatched from immersed eggs; for Hatch Day 2 / Hatch Day 5 / Hatch Day 7: hatched J2 per well, about 35 eggs per well
# Experimental: (§4) All chemicals were used without further purification.
# (§5) These are reported as 0.1% herein.
# (§6) The nematodes were then incubated at 26° C. […] Two trials were conducted for each assay.
# (§7) The assumptions of the model were checked.
# [2] = test system: H. glycines second-stage juveniles; assay: Microwell assay: previously hatched J2 immersed in compounds, activity and viability; conditions: for % Active Day 1 / % Active Day 2: previously hatched J2 in aqueous solution; for viability at 0.1 %: Heterodera glycines, 72 h, read-out: % Viable Day 3 rinsed
# Experimental: The isolate of H. glycines race 3, originally isolated in Maryland, was maintained on soybean (Glycine max cv. ‘Essex’). As previously described (Wen, Y., et al. Plant Disease, 103: 2191-2198 (2019)), the roots were gently rubbed in water to dislodge cysts and mature females. The egg suspensions were then poured through nested sieves (#20 over /#60; pore sizes 850 μm and 250 μm diam., respectively) into a 454 g/liter sucrose solution. After 15 min, the cysts and females and cysts that floated to the top were collected, rinsed in water, and crushed with a rubber stopper on a #60 sieve (250-μm diam. pore size) that was partially submerged in distilled water. The egg suspension was washed through nested #230 over #500 sieves (pore sizes 63 μm and 25-μm diam., respectively). The eggs were collected in distilled water, and J2 hatched as described above.
# as §1, §2, §3
# Statistical analyses: The data were analyzed as either a general linear model using JMP or a generalized linear model for the best distribution to fit the residual using Proc Glimmix (Sas Institute). The assumptions of the model were checked. If not met, then appropriate statistical techniques were used so that data could met the assumptions of the models. In Sas, mean comparisons were done with Sidak adjusted p-values to hold the experiment-wise error at 0.05.
# Heterodera glycines eggs = assay: Microwell assay: eggs immersed in compounds, hatch and activity of hatched J2; format: in vivo; conditions: 0.1%; for % Active Day 2 / % Active Day 5 / % Active Day 7: J2 hatched from immersed eggs; for Hatch Day 2 / Hatch Day 5 / Hatch Day 7: hatched J2 per well, about 35 eggs per well
# Experimental: as §4, §5, §6, §7
smiles,measurement,setting,value
"COC(=O)c1ccccc1Cl [M2CB, Methyl 2-chlorobenzoate]",% Active Day 1,[1],0 ^f %
same,% Active Day 2,[1],0 ^d %
same,viability at 0.1 %,[1],0%
same,mortality at 0.1 %,[1],100%
same,decrease in total hatch compared with the Tween control,M. incognita eggs; Day 7,~95%
same,% Active Day 2,M. incognita eggs,0 ^c %
same,% Active Day 5,M. incognita eggs,0 e %
same,% Active Day 7,M. incognita eggs,0 ^c %
same,Hatch Day 2,M. incognita eggs,1.7 ^d
same,Hatch Day 5,M. incognita eggs,1.7 ^e
same,Hatch Day 7,M. incognita eggs,2.3 ^e
same,reduction in % viable J2 compared with the Tween control,"[2]; 0.1%, Day 3 following water rinse",99%
same,% Active Day 1,[2]; 0.1%,0.46 ^e %
same,% Active Day 2,[2]; 0.1%,1.6 ^g %
same,viability at 0.1 %,[2],0.5%
same,% Active Day 2,Heterodera glycines eggs,0 ^e %
same,% Active Day 5,Heterodera glycines eggs,6.4 ^de %
same,% Active Day 7,Heterodera glycines eggs,0 ^d %
same,inactive J2 that hatched from the eggs,Heterodera glycines eggs; by Day 7,100%
same,Hatch Day 2,Heterodera glycines eggs,5.4 ^cd
same,Hatch Day 5,Heterodera glycines eggs,5.8 ^cd
same,Hatch Day 7,Heterodera glycines eggs,5.5 ^cd
same,pest or weed control at 0.1 %,"Heterodera glycines eggs; Heterodera glycines, 168 h, Day 7, read-out: egg hatch suppression compared with the Tween control",64 to 80%
"COC(=O)c1ccccc1C [M2MB, Methyl 2-methylbenzoate]",% Active Day 1,[1],2.5 ^e %
same,% Active Day 2,[1],0 ^d %
same,viability at 0.1 %,[1],0%
same,mortality at 0.1 %,[1],100%
same,% Active Day 2,M. incognita eggs,45.3 ^ab %
same,% Active Day 5,M. incognita eggs,11.8 ^d %
same,% Active Day 7,M. incognita eggs,17.4 ^b %
same,Hatch Day 2,M. incognita eggs,4.3 ^cd
same,Hatch Day 5,M. incognita eggs,6.6 ^bcd
same,Hatch Day 7,M. incognita eggs,7.6 ^cd
same,% Active Day 1,[2]; 0.1%,50.4 ^c %
same,% Active Day 2,[2]; 0.1%,52.7 ^bc %
same,viability at 0.1 %,[2],46.4%
same,% Active Day 2,Heterodera glycines eggs,23.8 ^cd %
same,% Active Day 5,Heterodera glycines eggs,24.3 ^cde %
same,% Active Day 7,Heterodera glycines eggs,30.9 ^ab %
same,Hatch Day 2,Heterodera glycines eggs,6.6 ^bcd
same,Hatch Day 5,Heterodera glycines eggs,7.6 ^bcd
same,Hatch Day 7,Heterodera glycines eggs,7.4 ^bcd
"COC(=O)c1ccccc1OC [M2MOB, Methyl 2-methoxybenzoate]",% Active Day 1,[1],5.2 ^de %
same,% Active Day 2,[1],5.9 ^c %
same,viability at 0.1 %,[1],36.8%
same,nonviable (killed) J2,[1]; in vivo,killed more than half
same,decrease in % active J2 compared with the Tween control,"M. incognita eggs; J2 hatched from eggs, 7-day incubation",86%
same,% Active Day 2,M. incognita eggs,35.2 ^ab %
same,% Active Day 5,M. incognita eggs,32.5 ^cd %
same,% Active Day 7,M. incognita eggs,13.9 ^b %
same,Hatch Day 2,M. incognita eggs,3.4 ^cd
same,Hatch Day 5,M. incognita eggs,8.4 ^bc
same,Hatch Day 7,M. incognita eggs,13.9 ^bc
same,% Viable Day 3 rinsed,"[2]; 0.1%, after Day 2 water rinse",did not cause significant reductions
same,% Active Day 1,[2]; 0.1%,73.6 ^ab %
same,% Active Day 2,[2]; 0.1%,66.3 ^ab %
same,viability at 0.1 %,[2],59.6%
same,% Active Day 2,Heterodera glycines eggs,48.2 ^bc %
same,% Active Day 5,Heterodera glycines eggs,43.0 ^abc %
same,% Active Day 7,Heterodera glycines eggs,19.1 ^bc %
same,Hatch Day 2,Heterodera glycines eggs,8.7 ^abcd
same,Hatch Day 5,Heterodera glycines eggs,11.3 ^bc
same,Hatch Day 7,Heterodera glycines eggs,11.6 ^abc
